Measurements reported in US20040248821A1, “Composition for the treatment of lupus” (priority 2001, published 2004).
Entries after “also recorded” stand apart in the source; their conditions may differ.

Key:
[1] = system: patients with Lupus (SLE); assay: Treatment of human Lupus patients with the inventive composition (case reports); format: in vivo; details: flavonoid replacing Quercetin in the inventive formula; limited tests
[2] = system: osteoarthritis or Lupus caused joint inflammation; details: Bromelain alone; cited from earlier work

Compound	Effectiveness of the flavonoid in the inventive formula (with Bromelain and Vitamin C) [1]	Ameliorating joint pain [2]
O=c1cc(-c2ccc(O)c(O)c2)oc2cc(O)cc(O)c12 [Luteolin]	also effective; also recorded: somewhat more effective than Quercetin	
O=c1c(O)c(-c2cc(O)c(O)c(O)c2)oc2cc(O)cc(O)c12 [Myricetin]	also effective; also recorded: somewhat effective	
Bromelain		not effective
